Measurements as given in ChEMBL document CHEMBL4190392, “Enhancing Action of Positive Allosteric Modulators through the Design of Dimeric Compounds” (J Med Chem, 2018).

Biological target: Glutamate receptor 2 (Homo sapiens, UniProt P42262)
Assay: Positive allosteric modulation of GluA2Q flop isoform (unknown origin) expressed in HEK293 cells assessed as increase in L-glutamate induced calcium flux after 1 hr by fluo-4AM dye-based fluorescence assay
Format: cell-based

Glutamate receptor 2, sequence (P42262 whole entry, canonical isoform): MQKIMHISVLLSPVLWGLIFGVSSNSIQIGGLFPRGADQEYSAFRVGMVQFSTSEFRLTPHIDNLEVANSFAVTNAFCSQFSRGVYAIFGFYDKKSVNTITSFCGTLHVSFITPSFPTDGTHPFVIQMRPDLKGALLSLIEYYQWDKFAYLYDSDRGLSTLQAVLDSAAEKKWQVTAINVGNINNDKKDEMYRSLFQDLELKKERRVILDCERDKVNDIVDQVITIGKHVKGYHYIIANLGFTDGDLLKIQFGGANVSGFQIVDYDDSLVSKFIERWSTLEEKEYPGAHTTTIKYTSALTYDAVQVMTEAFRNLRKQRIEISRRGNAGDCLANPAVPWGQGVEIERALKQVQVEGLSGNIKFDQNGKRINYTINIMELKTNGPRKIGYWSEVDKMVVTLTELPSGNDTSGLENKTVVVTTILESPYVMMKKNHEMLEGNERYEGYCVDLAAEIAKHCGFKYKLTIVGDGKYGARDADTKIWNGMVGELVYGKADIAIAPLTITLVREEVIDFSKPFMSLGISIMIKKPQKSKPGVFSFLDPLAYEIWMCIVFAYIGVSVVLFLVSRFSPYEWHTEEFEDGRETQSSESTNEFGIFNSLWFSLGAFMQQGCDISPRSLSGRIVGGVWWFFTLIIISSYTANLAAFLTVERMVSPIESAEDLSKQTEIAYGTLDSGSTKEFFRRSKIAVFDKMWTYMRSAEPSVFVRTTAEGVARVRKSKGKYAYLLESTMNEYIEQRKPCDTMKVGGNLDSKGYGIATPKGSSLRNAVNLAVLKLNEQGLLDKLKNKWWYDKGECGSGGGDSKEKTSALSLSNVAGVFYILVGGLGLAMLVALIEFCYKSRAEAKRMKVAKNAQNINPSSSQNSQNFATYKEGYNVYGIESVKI

EC50 (read-out: EC50) [µM] | EC50 (read-out: pEC50 (converted)) [µM] | Structure (SMILES)
0.0014 |  | O=S1(=O)NCN(C2CC2)c2cc(CCc3ccc4c(c3)N(C3CC3)CNS4(=O)=O)ccc21
48.2 | 49 | Cc1ccc2c(c1)N(C1CC1)CNS2(=O)=O
9.06 |  | O=S1(=O)NCN(C2CC2)c2ccccc21
0.0134 | 0.0145 | CN1CNS(=O)(=O)c2ccc(CCc3ccc4c(c3)N(C)CNS4(=O)=O)cc21
176 |  | CN1CNS(=O)(=O)c2ccccc21
403 |  | Cc1ccc2c(c1)N(C)CNS2(=O)=O
